Measurements from ChEMBL document CHEMBL3797052 (Eur J Med Chem, 2016).

Columns and labels:
[1] = Antiproliferative activity against human Hs 578T cells assessed as cell growth at 10^-4 M after 48 hrs by sulforhodamine B assay; type: functional; details: read-out: Activity
[2] = Antiproliferative activity against human DU145 cells assessed as cell growth at 10^-4 M after 48 hrs by sulforhodamine B assay; type: functional; details: DU-145, 48 h, read-out: Activity
[3] = Antiproliferative activity against human SNB75 cells assessed as growth inhibition after 48 hrs by sulforhodamine B assay; type: functional; details: SNB-75, 48 h; for CC50: read-out: LC50 (the source's name)
CCRF-CEM = assay: Antiproliferative activity against human CCRF-CEM cells assessed as cell growth at 10^-4 M after 48 hrs by sulforhodamine B assay; type: functional; details: read-out: Activity
A549 [4] = assay: Antiproliferative activity against human A549/ATCC cells assessed as cell growth at 10^-4 M after 48 hrs by sulforhodamine B assay; type: functional; details: A549, 48 h, read-out: Activity
EKVX = assay: Antiproliferative activity against human EKVX cells assessed as growth inhibition after 48 hrs by sulforhodamine B assay; type: functional; details: for CC50: read-out: LC50 (the source's name)
[5] = Antiproliferative activity against human SF295 cells assessed as cell growth at 10^-4 M after 48 hrs by sulforhodamine B assay; type: functional; details: SF-295, 48 h, read-out: Activity
[6] = Antiproliferative activity against human PC3 cells assessed as growth inhibition after 48 hrs by sulforhodamine B assay; type: functional; details: PC-3, 48 h
[7] = Antiproliferative activity against human SF295 cells assessed as cell growth at 10^-7 M after 48 hrs by sulforhodamine B assay; type: functional; details: SF-295, 48 h, read-out: Activity
[8] = Antiproliferative activity against human HOP92 cells assessed as cell growth at 10^-6 M after 48 hrs by sulforhodamine B assay; type: functional; details: HOP-92, 48 h, read-out: Activity
M14 = assay: Antiproliferative activity against human M14 cells assessed as cell growth at 10^-6 M after 48 hrs by sulforhodamine B assay; type: functional; details: M14, 48 h, read-out: Activity
[9] = Antiproliferative activity against human HL-60(TB) cells assessed as growth inhibition after 48 hrs by sulforhodamine B assay; type: functional; details: HL-60, 48 h; for CC50: read-out: LC50 (the source's name)
NCI-H226 [10] = assay: Antiproliferative activity against human NCI-H226 cells assessed as cell growth at 10^-4 M after 48 hrs by sulforhodamine B assay; type: functional; details: NCI-H226, 48 h, read-out: Activity
NCI-H226 [11] = assay: Antiproliferative activity against human NCI-H226 cells assessed as growth inhibition after 48 hrs by sulforhodamine B assay; type: functional; details: NCI-H226, 48 h; for CC50: read-out: LC50 (the source's name)
[12] = Antiproliferative activity against human OVCAR4 cells assessed as cell growth at 10^-7 M after 48 hrs by sulforhodamine B assay; type: functional; details: OVCAR-4, 48 h, read-out: Activity
NCI-H322M = assay: Antiproliferative activity against human NCI-H322M cells assessed as growth inhibition after 48 hrs by sulforhodamine B assay; type: functional
MDA-MB-468 = assay: Antiproliferative activity against human MDA-MB-468 cells assessed as cell growth at […] after 48 hrs by sulforhodamine B assay; type: functional; details: MDA-MB-468, 48 h, read-out: Activity
[13] = Antiproliferative activity against human SF268 cells assessed as growth inhibition after 48 hrs by sulforhodamine B assay; type: functional; details: SF-268, 48 h
MDA-MB-435 = assay: Antiproliferative activity against human MDA-MB-435 cells assessed as cell growth at 10^-6 M after 48 hrs by sulforhodamine B assay; type: functional; details: MDA-MB-435, 48 h, read-out: Activity
CYP1A2 = target: T1, CYP1A2 (Homo sapiens, UniProt P05177); assay: Inhibition of recombinant human CYP1A2 assessed as remaining enzyme activity using CYP1A2 blue as substrate at 10 uM after 5 mins in presence of NADP by fluorescence plate reader analysis; type: ADME; details: recombinant human CYP1A2, probe CYP1A2 blue, read-out: Activity
T1 sequence (P05177 whole entry): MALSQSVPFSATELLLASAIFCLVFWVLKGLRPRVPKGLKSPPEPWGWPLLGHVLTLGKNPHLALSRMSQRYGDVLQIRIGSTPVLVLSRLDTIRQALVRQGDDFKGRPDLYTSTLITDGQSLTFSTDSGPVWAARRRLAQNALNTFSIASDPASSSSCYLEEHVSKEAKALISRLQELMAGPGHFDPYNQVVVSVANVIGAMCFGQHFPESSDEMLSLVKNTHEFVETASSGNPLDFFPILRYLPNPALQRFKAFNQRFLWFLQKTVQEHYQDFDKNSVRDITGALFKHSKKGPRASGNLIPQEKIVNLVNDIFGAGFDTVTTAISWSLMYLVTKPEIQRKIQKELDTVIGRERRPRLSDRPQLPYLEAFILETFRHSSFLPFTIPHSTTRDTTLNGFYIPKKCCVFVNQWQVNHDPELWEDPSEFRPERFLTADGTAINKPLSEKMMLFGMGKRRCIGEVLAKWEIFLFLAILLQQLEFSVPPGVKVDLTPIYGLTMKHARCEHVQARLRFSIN

HT-29 = assay: Antiproliferative activity against human HT-29 cells assessed as cell growth at 10^-8 M after 48 hrs by sulforhodamine B assay; type: functional; details: HT-29, 48 h, read-out: Activity
SR = assay: Antiproliferative activity against human SR cells assessed as cell growth at 10^-6 M after 48 hrs by sulforhodamine B assay; type: functional; details: read-out: Activity
SK-MEL-2 = assay: Antiproliferative activity against human SK-MEL-2 cells assessed as cell growth at 10^-8 M after 48 hrs by sulforhodamine B assay; type: functional; details: SK-MEL-2, 48 h, read-out: Activity
[14] = Antiproliferative activity against human SW620 cells assessed as cell growth at […] M after 48 hrs by sulforhodamine B assay; type: functional; details: SW-620, 48 h, read-out: Activity
SK-MEL-5 = assay: Antiproliferative activity against human SK-MEL-5 cells assessed as cell growth at 10^-7 M after 48 hrs by sulforhodamine B assay; type: functional; details: SK-MEL-5, 48 h, read-out: Activity
Malme-3M = assay: Antiproliferative activity against human MALME-3M cells assessed as growth inhibition after 48 hrs by sulforhodamine B assay; type: functional; details: for CC50: read-out: LC50 (the source's name)
A549 [15] = assay: Antiproliferative activity against human A549/ATCC cells assessed as cell growth at […] after 48 hrs by sulforhodamine B assay; type: functional; details: A549, 48 h, read-out: Activity
U-251 = assay: Antiproliferative activity against human U251 cells assessed as cell growth at 10^-4 M after 48 hrs by sulforhodamine B assay; type: functional; details: U-251, 48 h, read-out: Activity
[16] = Antiproliferative activity against human OVCAR5 cells assessed as growth inhibition after 48 hrs by sulforhodamine B assay; type: functional; details: OVCAR-5, 48 h; for CC50: read-out: LC50 (the source's name)

## CNC(=O)c1cc(Oc2ccc3nc(NC(=O)Nc4ccc(Cl)c(Cl)c4)sc3c2)ccn1
[1]
  growth at 100 µM: -22%
[2]
  growth at 100 µM: -34%
[3]
  GI50: 1.73 µM
  TGI: 3.61 µM
  CC50: 7.54 µM
CCRF-CEM
  growth at 100 µM: 79%
A549 [4]
  growth at 100 µM: -41%
EKVX
  GI50: 3.3 µM
  TGI: > 100 µM
  CC50: > 100 µM
[5]
  growth at 100 µM: -74%
[6]
  GI50: 1.95 µM
  TGI: 4.33 µM
[7]
  growth at 0.1 µM: 90%
[8]
  growth at 1 µM: 119%
M14
  growth at 1 µM: 97%
[9]
  GI50: > 100 µM
  TGI: > 100 µM
  CC50: > 100 µM
NCI-H226 [10]
  growth at 100 µM: -59%
NCI-H226 [11]
  GI50: 2.28 µM
  TGI: 4.58 µM
  CC50: 9.21 µM
[12]
  growth at 0.1 µM: 100%
NCI-H322M
  GI50: 2.45 µM
  LC50 (50% lethal concentration): > 100 µM
MDA-MB-468
  growth at 0.01 µM: 94%
[13]
  GI50: 1.98 µM
  LC50 (concentration killing 50% of cells): 8.97 µM
  TGI: 4.21 µM
MDA-MB-435
  growth at 1 µM: 93%
CYP1A2
  activity at 5 min, 10 µM: 104%
HT-29
  growth at 0.01 µM: 107%
SR
  growth at 1 µM: 97%
SK-MEL-2
  growth at 0.01 µM: 115%
[14]
  growth at 0.01 µM: 102%
SK-MEL-5
  growth at 0.1 µM: 100%
Malme-3M
  GI50: 1.51 µM
  TGI: 3.3 µM
  CC50: 7.21 µM
A549 [15]
  growth at 0.1 µM: 96%
U-251
  growth at 100 µM: -90%

## CNC(=O)c1cc(Oc2ccc3nc(NC(=O)Nc4cc(C(F)(F)F)cc(C(F)(F)F)c4)sc3c2)ccn1
[1]
  growth at 100 µM: -38%
[2]
  growth at 100 µM: -89%
[3]
  GI50: 1 µM
  TGI: 2.7 µM
  CC50: 7.26 µM
CCRF-CEM
  growth at 100 µM: -36%
A549 [4]
  growth at 100 µM: -97%
EKVX
  GI50: 1.29 µM
  TGI: 4.56 µM
  CC50: 59.3 µM
[5]
  growth at 100 µM: -71%
[6]
  GI50: 0.611 µM
  LC50: 7.07 µM
  TGI: 2.29 µM
[7]
  growth at 0.1 µM: 92%
[8]
  growth at 1 µM: -2%
M14
  growth at 1 µM: 77%
[16]
  GI50: 1.55 µM
  TGI: 3.52 µM
  CC50: 7.97 µM
[9]
  GI50: 1.6 µM
  TGI: 4.17 µM
  CC50: 20.4 µM
NCI-H226 [10]
  growth at 100 µM: -52%
NCI-H226 [11]
  GI50: 1.45 µM
  TGI: 3.57 µM
  CC50: 8.79 µM
[12]
  growth at 0.1 µM: 94%
NCI-H322M
  GI50: 1.49 µM
  TGI: 3.65 µM
MDA-MB-468
  growth at 0.01 µM: 84%
[13]
  GI50: 1.27 µM
  LC50 (concentration killing 50% of cells): 6.44 µM
  TGI: 2.86 µM
MDA-MB-435
  growth at 1 µM: 52%
CYP1A2
  activity at 5 min, 10 µM: 110%
HT-29
  growth at 0.01 µM: 97%
SR
  growth at 1 µM: 34%
SK-MEL-2
  growth at 0.01 µM: 90%
[14]
  growth at 0.01 µM: 102%
SK-MEL-5
  growth at 0.1 µM: 99%
Malme-3M
  GI50: 0.908 µM
  TGI: 2.49 µM
  CC50: 6.41 µM
A549 [15]
  growth at 0.1 µM: 109%
U-251
  growth at 100 µM: -100%

## CNC(=O)c1cc(Oc2ccc3nc(NC(=O)Nc4ccc(Cl)c(C(F)(F)F)c4)sc3c2)ccn1
[1]
  growth at 100 µM: -12%
[2]
  growth at 100 µM: 17%
[3]
  GI50: 1.52 µM
  TGI: 3.24 µM
  CC50: 6.88 µM
CCRF-CEM
  growth at 100 µM: 53%
A549 [4]
  growth at 100 µM: 9%
EKVX
  GI50: 1.75 µM
  TGI: 4.18 µM
[5]
  growth at 100 µM: -82%
[6]
  GI50: 1.42 µM
[7]
  growth at 0.1 µM: 88%
[8]
  growth at 1 µM: 57%
M14
  growth at 1 µM: 83%
[16]
  GI50: 2.46 µM
  TGI: 7.55 µM
  CC50: > 100 µM
[9]
  GI50: > 100 µM
  TGI: > 100 µM
  CC50: > 100 µM
NCI-H226 [10]
  growth at 100 µM: -25%
NCI-H226 [11]
  GI50: 2.69 µM
  TGI: 7.47 µM
  CC50: > 100 µM
[12]
  growth at 0.1 µM: 95%
NCI-H322M
  GI50: 2.62 µM
  LC50 (50% lethal concentration): > 100 µM
MDA-MB-468
  growth at 0.01 µM: 86%
[13]
  GI50: 2.34 µM
  LC50 (concentration killing 50% of cells): > 100 µM
  TGI: 16.4 µM
MDA-MB-435
  growth at 1 µM: 83%
CYP1A2
  activity at 5 min, 10 µM: 106%
HT-29
  growth at 0.01 µM: 99%
SR
  growth at 1 µM: 15%
SK-MEL-2
  growth at 0.01 µM: 103%
[14]
  growth at 0.01 µM: 100%
SK-MEL-5
  growth at 0.1 µM: 95%
Malme-3M
  GI50: 1.61 µM
  TGI: 3.63 µM
A549 [15]
  growth at 0.1 µM: 105%
U-251
  growth at 100 µM: -34%
